{"source": "PubChem BioAssay AID1919004", "about": "(Molecular Pharmacology Branch, DTP, NCI, 2023)", "test_system": "883617-216-R-J1-PDC complex spheroids, growth, % test/control", "assay": "Anticancer human tumor 883617-216-R-J1-PDC patient-derived bladder carcinoma cell line growth inhibition [AhR]", "conditions": "for IC50: curve of first compound; for viability, T/C: stronger effect = lower value", "summary_of_the_method": "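Spheroids combined tumor cells with HUVEC endothelial cells and human MSCs as stroma. AhR antagonists were paired with standard or investigational drugs, each dosed in half-log steps down from near clinical Cmax, or from 10 microM where Cmax was unknown.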"}
{"compound": "Cn1ncnc1C1c2n[nH]c(=O)c3cc(F)cc(c23)NC1c1ccc(F)cc1", "note": "(stereo not drawn) + Cc1ccccc1N=Nc1ccc(NC(=O)c2ccnn2C)c(C)c1;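 further: exposure lasted 7 days after dosing on day 3 of spheroid growth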", "values": [{"measurement": "IC50", "setting": "second compound 0.1 µM", "value": "> 100", "unit": "nM"}, {"measurement": "IC50", "setting": "second compound 0.316 µM", "value": "> 100", "unit": "nM"}, {"measurement": "IC50", "setting": "second compound 1 µM", "value": "> 100", "unit": "nM"}, {"measurement": "IC50", "setting": "second compound 3.16 µM", "value": "> 100", "unit": "nM"}, {"measurement": "IC50", "setting": "second compound 10 µM", "value": "> 100", "unit": "nM"}, {"measurement": "viability, T/C", "setting": "second compound 0.1 µM, first compound 0.000316 µM", "value": 98.1, "unit": "%"}, {"measurement": "viability, T/C", "setting": "second compound 0.1 µM, first compound 0.001 µM", "value": 97.5, "unit": "%"}, {"measurement": "viability, T/C", "setting": "second compound 0.1 µM, first compound 0.00316 µM", "value": 92.7, "unit": "%"}, {"measurement": "viability, T/C", "setting": "second compound 0.1 µM, first compound 0.01 µM", "value": 88.7, "unit": "%"}, {"measurement": "viability, T/C", "setting": "second compound 0.1 µM, first compound 0.0316 µM", "value": 89.2, "unit": "%"}, {"measurement": "viability, T/C", "setting": "second compound 0.1 µM, first compound 0.1 µM", "value": 79.9, "unit": "%"}, {"measurement": "viability, T/C", "setting": "second compound 0.316 µM, first compound 0.000316 µM", "value": 76.4, "unit": "%"}, {"measurement": "viability, T/C", "setting": "second compound 0.316 µM, first compound 0.001 µM", "value": 85.7, "unit": "%"}, {"measurement": "viability, T/C", "setting": "second compound 0.316 µM, first compound 0.00316 µM", "value": 82.7, "unit": "%"}, {"measurement": "viability, T/C", "setting": "second compound 0.316 µM, first compound 0.01 µM", "value": 83.4, "unit": "%"}, {"measurement": "viability, T/C", "setting": "second compound 0.316 µM, first compound 0.0316 µM", "value": 71.9, "unit": "%"}, {"measurement": "viability, T/C", "setting": "second compound 0.316 µM, first compound 0.1 µM", "value": 78.3, "unit": "%"}, {"measurement": "viability, T/C", "setting": "second compound 1 µM, first compound 0.000316 µM", "value": 87.5, "unit": "%"}, {"measurement": "viability, T/C", "setting": "second compound 1 µM, first compound 0.001 µM", "value": 87.1, "unit": "%"}, {"measurement": "viability, T/C", "setting": "second compound 1 µM, first compound 0.00316 µM", "value": 86.1, "unit": "%"}, {"measurement": "viability, T/C", "setting": "second compound 1 µM, first compound 0.01 µM", "value": 78.6, "unit": "%"}, {"measurement": "viability, T/C", "setting": "second compound 1 µM, first compound 0.0316 µM", "value": 81, "unit": "%"}, {"measurement": "viability, T/C", "setting": "second compound 1 µM, first compound 0.1 µM", "value": 81.1, "unit": "%"}, {"measurement": "viability, T/C", "setting": "second compound 3.16 µM, first compound 0.000316 µM", "value": 82, "unit": "%"}, {"measurement": "viability, T/C", "setting": "second compound 3.16 µM, first compound 0.001 µM", "value": 80.1, "unit": "%"}, {"measurement": "viability, T/C", "setting": "second compound 3.16 µM, first compound 0.00316 µM", "value": 78.4, "unit": "%"}, {"measurement": "viability, T/C", "setting": "second compound 3.16 µM, first compound 0.01 µM", "value": 87.3, "unit": "%"}, {"measurement": "viability, T/C", "setting": "second compound 3.16 µM, first compound 0.0316 µM", "value": 84.6, "unit": "%"}, {"measurement": "viability, T/C", "setting": "second compound 3.16 µM, first compound 0.1 µM", "value": 85.5, "unit": "%"}, {"measurement": "viability, T/C", "setting": "second compound 10 µM, first compound 0.000316 µM", "value": 70.4, "unit": "%"}, {"measurement": "viability, T/C", "setting": "second compound 10 µM, first compound 0.001 µM", "value": 98.1, "unit": "%"}, {"measurement": "viability, T/C", "setting": "second compound 10 µM, first compound 0.00316 µM", "value": 75.8, "unit": "%"}, {"measurement": "viability, T/C", "setting": "second compound 10 µM, first compound 0.01 µM", "value": 81.8, "unit": "%"}, {"measurement": "viability, T/C", "setting": "second compound 10 µM, first compound 0.0316 µM", "value": 63.6, "unit": "%"}, {"measurement": "viability, T/C", "setting": "second compound 10 µM, first compound 0.1 µM", "value": 76, "unit": "%"}]}
{"compound": "CC(C)CC(NC(=O)C(Cc1ccccc1)NC(=O)c1cnccn1)B(O)O", "note": "(stereo not drawn) + Cc1ccccc1N=Nc1ccc(NC(=O)c2ccnn2C)c(C)c1", "values": [{"measurement": "IC50", "setting": "second compound 0.1 µM", "value": 7.48, "unit": "nM"}, {"measurement": "IC50", "setting": "second compound 0.316 µM", "value": 7.89, "unit": "nM"}, {"measurement": "IC50", "setting": "second compound 1 µM", "value": 7.56, "unit": "nM"}, {"measurement": "IC50", "setting": "second compound 3.16 µM", "value": 7.93, "unit": "nM"}, {"measurement": "IC50", "setting": "second compound 10 µM", "value": 9.89, "unit": "nM"}, {"measurement": "viability, T/C", "setting": "second compound 0.1 µM, first compound 0.000949 µM", "value": 85.9, "unit": "%"}, {"measurement": "viability, T/C", "setting": "second compound 0.1 µM, first compound 0.003 µM", "value": 97.5, "unit": "%"}, {"measurement": "viability, T/C", "setting": "second compound 0.1 µM, first compound 0.00949 µM", "value": 39.1, "unit": "%"}, {"measurement": "viability, T/C", "setting": "second compound 0.1 µM, first compound 0.03 µM", "value": 0.08, "unit": "%"}, {"measurement": "viability, T/C", "setting": "second compound 0.1 µM, first compound 0.0949 µM", "value": 0.03, "unit": "%"}, {"measurement": "viability, T/C", "setting": "second compound 0.1 µM, first compound 0.3 µM", "value": 0.11, "unit": "%"}, {"measurement": "viability, T/C", "setting": "second compound 0.316 µM, first compound 0.000949 µM", "value": 90.5, "unit": "%"}, {"measurement": "viability, T/C", "setting": "second compound 0.316 µM, first compound 0.003 µM", "value": 92.7, "unit": "%"}, {"measurement": "viability, T/C", "setting": "second compound 0.316 µM, first compound 0.00949 µM", "value": 42.1, "unit": "%"}, {"measurement": "viability, T/C", "setting": "second compound 0.316 µM, first compound 0.03 µM", "value": 0.06, "unit": "%"}, {"measurement": "viability, T/C", "setting": "second compound 0.316 µM, first compound 0.0949 µM", "value": 0.05, "unit": "%"}, {"measurement": "viability, T/C", "setting": "second compound 0.316 µM, first compound 0.3 µM", "value": 0.11, "unit": "%"}, {"measurement": "viability, T/C", "setting": "second compound 1 µM, first compound 0.000949 µM", "value": 84.8, "unit": "%"}, {"measurement": "viability, T/C", "setting": "second compound 1 µM, first compound 0.003 µM", "value": 89.4, "unit": "%"}, {"measurement": "viability, T/C", "setting": "second compound 1 µM, first compound 0.00949 µM", "value": 40.9, "unit": "%"}, {"measurement": "viability, T/C", "setting": "second compound 1 µM, first compound 0.03 µM", "value": 0.08, "unit": "%"}, {"measurement": "viability, T/C", "setting": "second compound 1 µM, first compound 0.0949 µM", "value": 0.03, "unit": "%"}, {"measurement": "viability, T/C", "setting": "second compound 1 µM, first compound 0.3 µM", "value": 0.1, "unit": "%"}, {"measurement": "viability, T/C", "setting": "second compound 3.16 µM, first compound 0.000949 µM", "value": 79.4, "unit": "%"}, {"measurement": "viability, T/C", "setting": "second compound 3.16 µM, first compound 0.003 µM", "value": 88.2, "unit": "%"}, {"measurement": "viability, T/C", "setting": "second compound 3.16 µM, first compound 0.00949 µM", "value": 43.8, "unit": "%"}, {"measurement": "viability, T/C", "setting": "second compound 3.16 µM, first compound 0.03 µM", "value": 0.11, "unit": "%"}, {"measurement": "viability, T/C", "setting": "second compound 3.16 µM, first compound 0.0949 µM", "value": 2.06, "unit": "%"}, {"measurement": "viability, T/C", "setting": "second compound 3.16 µM, first compound 0.3 µM", "value": 0.76, "unit": "%"}, {"measurement": "viability, T/C", "setting": "second compound 10 µM, first compound 0.000949 µM", "value": 78, "unit": "%"}, {"measurement": "viability, T/C", "setting": "second compound 10 µM, first compound 0.003 µM", "value": 80.8, "unit": "%"}, {"measurement": "viability, T/C", "setting": "second compound 10 µM, first compound 0.00949 µM", "value": 51.9, "unit": "%"}, {"measurement": "viability, T/C", "setting": "second compound 10 µM, first compound 0.03 µM", "value": 0.17, "unit": "%"}, {"measurement": "viability, T/C", "setting": "second compound 10 µM, first compound 0.0949 µM", "value": 0.62, "unit": "%"}, {"measurement": "viability, T/C", "setting": "second compound 10 µM, first compound 0.3 µM", "value": 0.21, "unit": "%"}]}
{"compound": "Cc1cncc(-c2nc(NCCc3c[nH]c4ccccc34)c3ncn(C(C)C)c3n2)c1", "values": [{"measurement": "viability, T/C", "setting": "compound 0.1 µM", "value": "88.2% [middle of 19 runs]"}, {"measurement": "viability, T/C", "setting": "compound 1 µM", "value": "95.8% [middle of 20 runs]"}, {"measurement": "viability, T/C", "setting": "compound 10 µM", "value": "51.4% [middle of 21 runs]"}]}
